Data published in patent US20160376237A1, “NOVEL PYRIDINE DERIVATIVES” (Hoffmann-La Roche Inc., priority 2014, published 2016).
Read-outs that look alike come from different tables or passages of the source.

Target: T1, human CB2 receptors (Homo sapiens, UniProt P34972)
T1 construct: expressed in transfected cells; host or cells: CHO cells
Assay: cAMP assay
Type: cell-based
Procedure: CHO cells expressing human CB1 or CB2 receptors are seeded 17-24 hours prior to the experiment 50.000 cells per well in a black 96 well plate with flat clear bottom (Corning Costar #3904) in DMEM (Invitrogen No. 31331), 1×HT supplement, with 10% fetal calf serum and incubated at 5% CO2 and 37° C. in a humidified incubator. The growth medium was exchanged with Krebs Ringer Bicarbonate buffer with 1 mM IBMX and incubated at 30° C. for 30 min. Compounds were added to a final assay volume of 100 μl and incubated for 30 min at 30° C. Using the cAMP-Nano-TRF detection kit the assay (Roche Diagnostics) was stopped by the addition of 50 μl lysis reagent (Tris, NaCl, 1.5% Triton X100, 2.5% NP40, 10% NaN3) and 50 μl detection solutions ([…] mAb Alexa700-cAMP 1:[…] Ruthenium-2-AHA-cAMP) and shaken for 2 h at room temperature. The time-resolved energy transfer is measured by a TRF reader (Evotec Technologies GmbH), equipped with a ND:YAG laser as excitation source. The plate is measured twice with the excitation at 355 nm and at the emission with a delay of 100 ns and a gate of 100 ns, total exposure time 10 s at 730 (bandwidth 30 nm) or 645 nm (bandwidth 75 nm), respectively. The FRET signal is calculated as follows: FRET=T730-Alexa730-P(T645-B645) with P=Ru730-B730/Ru645-B645, where T730 is the test well measured at 730 nM, T645 is the test well measured at 645 nm, B730 and B645 are the buffer controls at 730 nm and 645 nm, respectively. cAMP content is determined from the function of a standard curve spanning from […] to 0.13 nM cAMP.
EC50 values were determined using Activity Base analysis (ID Business Solution, Limited).

[1] = CHO cells expressing human CB2 receptors, read-out: cAMP assay human CB2 EC50

T1 sequence (P34972 whole entry): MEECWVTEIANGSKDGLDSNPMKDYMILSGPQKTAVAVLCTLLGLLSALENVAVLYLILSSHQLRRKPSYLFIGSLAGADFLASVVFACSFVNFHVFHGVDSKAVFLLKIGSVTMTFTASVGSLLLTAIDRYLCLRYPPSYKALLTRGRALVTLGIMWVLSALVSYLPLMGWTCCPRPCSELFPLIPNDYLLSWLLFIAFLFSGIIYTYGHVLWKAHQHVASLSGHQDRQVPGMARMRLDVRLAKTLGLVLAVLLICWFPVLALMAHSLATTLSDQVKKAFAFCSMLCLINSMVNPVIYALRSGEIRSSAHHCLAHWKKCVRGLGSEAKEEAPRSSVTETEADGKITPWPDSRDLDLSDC

| Compound | EC50 [nM] | EC50 [1] [nM] |
| --- | --- | --- |
| COC(=O)C(C)(C)NC(=O)c1ccc(-c2ccc(Cl)cc2)c(SC)n1 [Example 1, Methyl 2-[[5-(4-chlorophenyl)-6-methylsulfanylpyridine-2-carbonyl]amino]-2-methylpropanoate] | 344 | – |
| NC(=O)[C@@H]1CC(F)(F)CN1C(=O)c1ccc(N2CC(F)(C3CC3)C2)c(OCC2CC2)n1 [Example 37, (2S)-1-[5-(3-Cyclopropyl-3-fluoroazetidin-1-yl)-6-(cyclopropylmethoxy)pyridine-2-carbonyl]-4,4-difluoropyrrolidine-2-carboxamide] | 19.3 | – |
| CCC(CC)(NC(=O)c1ccc(N2CC(OC)C2)c(OCC2CC2)n1)C(=O)NCCCF [Example 27, 6-(Cyclopropylmethoxy)-N-[3-(3-fluoropropylcarbamoyl)pentan-3-yl]-5-(3-methoxyazetidin-1-yl)pyridine-2-carboxamide] | – | 444 |
| CC(C)C[C@H](NC(=O)c1ccc(OCC2CC2)c(-c2ccc(Cl)cc2)n1)C(N)=O [Example 42, N-[(2S)-1-Amino-4-methyl-1-oxopentan-2-yl]-6-(4-chlorophenyl)-5-(cyclopropylmethoxy)pyridine-2-carboxamide] | 4.44 | – |
| NC(=O)CC1(NC(=O)c2ccc(N3CC(F)(C4CC4)C3)c(OCC3CC3)n2)COC1 [Example 38, N-[3-(2-Amino-2-oxoethyl)oxetan-3-yl]-5-(3-cyclopropyl-3-fluoroazetidin-1-yl)-6-(cyclopropylmethoxy)pyridine-2-carboxamide] | 48.3 | – |
| Cc1nc([C@H](CC2CC2)NC(=O)c2ccc(OCC3CC3)c(Cl)n2)no1 [Example 18, 6-Chloro-5-(cyclopropylmethoxy)-N-[(1S)-2-cyclopropyl-1-(5-methyl-1,2,4-oxadiazol-3-yl)ethyl]pyridine-2-carboxamide] | 646 | – |
| COC1CN(c2ccc(C(=O)NC(C)(C)Cc3nnc(-c4ccc(F)cc4)o3)nc2OCC2CC2)C1 [Example 21, 6-(Cyclopropylmethoxy)-N-[1-[5-(4-fluorophenyl)-1,3,4-oxadiazol-2-yl]-2-methylpropan-2-yl]-5-(3-methoxyazetidin-1-yl)pyridine-2-carboxamide] | – | 853 |
| COC1CN(c2ccc(C(=O)NC3(CC(N)=O)COC3)nc2OCC2CC2)C1 [Example 22, N-[3-(2-Amino-2-oxoethyl)oxetan-3-yl]-6-(cyclopropylmethoxy)-5-(3-methoxyazetidin-1-yl)pyridine-2-carboxamide] | – | 67 |
| CC1(F)CN(c2ccc(C(=O)N3CC(F)(F)C[C@H]3C(N)=O)nc2OCC2CC2)C1 [Example 34, (2S)-1-[6-(Cyclopropylmethoxy)-5-(3-fluoro-3-methylazetidin-1-yl)pyridine-2-carbonyl]-4,4-difluoropyrrolidine-2-carboxamide] | 11.4 | – |
| CC(C)C[C@H](NC(=O)c1ccc(N2CCC3(C2)CC3(F)F)c(OCC2CC2)n1)C(N)=O (stereo partly drawn) [Example 30, N-[(2S)-1-Amino-4-methyl-1-oxopentan-2-yl]-6-(cyclopropylmethoxy)-5-(2,2-difluoro-5-azaspiro[2.4]heptan-5-yl)pyridine-2-carboxamide] | 38.1 | – |
| Cc1nc(C(C)(C)NC(=O)c2ccc(OCC3CC3)c(-c3ccc(Cl)cc3)n2)no1 [Example 40, 6-(4-Chlorophenyl)-5-(cyclopropylmethoxy)-N-[2-(5-methyl-1,2,4-oxadiazol-3-yl)propan-2-yl]pyridine-2-carboxamide] | 16.9 | – |
| CC(C)C[C@H](NC(=O)c1ccc(N2CC(F)(C3CC3)C2)c(OCC2CC2)n1)C(N)=O [Example 36, N-[(2S)-1-Amino-4-methyl-1-oxopentan-2-yl]-5-(3-cyclopropyl-3-fluoroazetidin-1-yl)-6-(cyclopropylmethoxy)pyridine-2-carboxamide] | 20 | – |
| CCOC(=O)C(CC)(CC)NC(=O)c1ccc(N2CC(OC)C2)c(OCC2CC2)n1 [Example 20, Ethyl 2-[[6-(cyclopropylmethoxy)-5-(3-methoxyazetidin-1-yl)pyridine-2-carbonyl]amino]-2-ethylbutanoate] | 6.5 | – |
| COC1CN(c2ccc(C(=O)NCC3(O)CCCCC3)nc2OCC2CC2)C1 [Example 24, 6-(Cyclopropylmethoxy)-N-[(1-hydroxycyclohexyl)methyl]-5-(3-methoxyazetidin-1-yl)pyridine-2-carboxamide] | – | 1290 |
| NC(=O)[C@H](CC1CC1)NC(=O)c1ccc(OCC2CC2)c(OCC2CC2)n1 [Example 14, N-[(2S)-1-Amino-3-cyclopropyl-1-oxopropan-2-yl]-5,6-bis(cyclopropylmethoxy)pyridine-2-carboxamide] | 95 | – |
| CC(C)C[C@H](NC(=O)c1ccc(N2CC3(COC3)C2)c(OCC2CC2)n1)C(N)=O [Example 12, N-[(2S)-1-amino-4-methyl-1-oxopentan-2-yl]-6-(cyclopropylmethoxy)-5-(2-oxa-6-azaspiro[3.3]heptan-6-yl)pyridine-2-carboxamide] | 177 | – |
| CC1(F)CN(c2ccc(C(=O)NC3(CC(N)=O)COC3)nc2OCC2CC2)C1 [Example 35, N-[3-(2-Amino-2-oxoethyl)oxetan-3-yl]-6-(cyclopropylmethoxy)-5-(3-fluoro-3-methylazetidin-1-yl)pyridine-2-carboxamide] | 213 | – |
| COC1CN(c2ccc(C(=O)N[C@@H](CC(C)C)C(N)=O)nc2OCC2CC2)C1 [Example 15, N-[(2S)-1-Amino-4-methyl-1-oxopentan-2-yl]-6-(cyclopropylmethoxy)-5-(3-methoxyazetidin-1-yl)pyridine-2-carboxamide] | 21.9 | – |
| NC(=O)[C@@H]1CC(F)(F)CN1C(=O)c1ccc(N2CCC3(C2)CC3(F)F)c(OCC2CC2)n1 (stereo partly drawn) [Example 31, (2S)-1-[6-(Cyclopropylmethoxy)-5-(2,2-difluoro-5-azaspiro[2.4]heptan-5-yl)pyridine-2-carbonyl]-4,4-difluoropyrrolidine-2-carboxamide] | 19 | – |
| CCC(CC)(NC(=O)c1ccc(N2CC(OC)C2)c(OCC2CC2)n1)C(=O)NCCF [Example 25, 6-(Cyclopropylmethoxy)-N-[3-(2-fluoroethylcarbamoyl)pentan-3-yl]-5-(3-methoxyazetidin-1-yl)pyridine-2-carboxamide] | 334 | – |
| CC(C)(NC(=O)c1ccc(-c2ccccc2)c(OCC2CC2)n1)c1ncco1 [Example 5, 6-(Cyclopropylmethoxy)-N-[2-(1,3-oxazol-2-yl)propan-2-yl]-5-phenylpyridine-2-carboxamide] | 34.2 | – |
| CCC(CC)(NC(=O)c1ccc(OCC2CC2)c(Cl)n1)C(=O)NC [Example 17, 6-Chloro-5-(cyclopropylmethoxy)-N-[3-(methylcarbamoyl)pentan-3-yl]pyridine-2-carboxamide] | 800 | – |
| CC(C)C[C@H](NC(=O)c1ccc(N2CCC(O)(C(F)(F)F)C2)c(OCC2CC2)n1)C(N)=O (stereo partly drawn) [Example 29, N-[(2S)-1-Amino-4-methyl-1-oxopentan-2-yl]-6-(cyclopropylmethoxy)-5-[3-hydroxy-3-(trifluoromethyl)pyrrolidin-1-yl]pyridine-2-carboxamide] | 1890 | – |
| Cc1nc(C(C)(C)NC(=O)c2ccc(-c3ccc(Cl)cc3)c(OCC3CC3)n2)no1 [Example 4, 5-(4-Chlorophenyl)-6-(cyclopropylmethoxy)-N-[2-(5-methyl-1,2,4-oxadiazol-3-yl)propan-2-yl]pyridine-2-carboxamide] | 232 | – |
| CCC(CC)(NC(=O)c1ccc(-c2ccccc2)c(OCC2CC2)n1)C(=O)NC [Example 6, 6-(Cyclopropylmethoxy)-N-[3-(methylcarbamoyl)pentan-3-yl]-5-phenylpyridine-2-carboxamide] | 831 | – |
| CC(C)(NC(=O)c1ccc(N2CC3(COC3)C2)c(OCC2CC2)n1)c1nccs1 [Example 11, 6-(Cyclopropylmethoxy)-5-(2-oxa-6-azaspiro[3.3]heptan-6-yl)-N-[2-(1,3-thiazol-2-yl)propan-2-yl]pyridine-2-carboxamide] | 135 | – |
| CCC(CC)(NC(=O)c1ccc(N2CC(OC)C2)c(OCC2CC2)n1)C(=O)NC [Example 23, 6-(Cyclopropylmethoxy)-5-(3-methoxyazetidin-1-yl)-N-[3-(methylcarbamoyl)pentan-3-yl]pyridine-2-carboxamide] | – | 47 |
| COC(=O)C(C)(C)NC(=O)c1ccc(-c2ccc(Cl)cc2)c(OCC2CC2)n1 [Example 2, Methyl 2-[[5-(4-chlorophenyl)-6-(cyclopropylmethoxy)pyridine-2-carbonyl]amino]-2-methylpropanoate] | 48.2 | – |
| COC1CN(c2ccc(C(=O)N[C@@H](CC3CC3)C(N)=O)nc2OCC2CC2)C1 [Example 10, N-[(2S)-1-amino-3-cyclopropyl-1-oxopropan-2-yl]-6-(cyclopropylmethoxy)-5-(3-methoxyazetidin-1-yl)pyridine-2-carboxamide] | 63.4 | – |
